Results published in PMC8518794 (2021).

How the values were obtained:
[1] = tested on: pApU (poly rA–poly rU; polyAU) (RNA, polymer) A/U; assay: fluorimetric titration, Scatchard / McGhee-von Hippel; conditions: Na+ (sodium cacodylate); pH 7; sodium cacodylate buffer; r fixed at 0.25; compound 1×10^-7 M; per base
[2] = tested on: pApU (poly rA–poly rU; polyAU) (RNA, polymer) A/U; assay: UV thermal denaturation; conditions: Na+ (sodium cacodylate); pH 7; r[compound]/[polynucleotide] = 0.3; error ±0.5 °C; per base
[3] = tested on: pApU (poly rA–poly rU; polyAU) (RNA, polymer) A/U; assay: fluorimetric titration; conditions: Na+ (sodium cacodylate); pH 7; compound 1×10^-7 M; negligible emission change

log Ks [1]	ΔTm [2]	binding [3]	SMILES
7.8	13.0 °C	–	Cc1cc(C)c(B(c2c(C)cc(-c3ccc(-c4ccc(-c5cc(C)c(B(c6c(C)cc(C)cc6C)c6c(C)cc([N+](C)(C)C)cc6C)c(C)c5)s4)s3)cc2C)c2c(C)cc([N+](C)(C)C)cc2C)c(C)c1
7.5	5.5 °C	–	Cc1cc(C)c(B(c2c(C)cc(-c3ccc(-c4ccc(-c5cc(C)c(B(c6c(C)cc([N+](C)(C)C)cc6C)c6c(C)cc([N+](C)(C)C)cc6C)c(C)c5)s4)s3)cc2C)c2c(C)cc([N+](C)(C)C)cc2C)c(C)c1
–	0 °C	no	Cc1cc(C)c(B(c2c(C)cc(C)cc2C)c2c(C)cc(-c3ccc(-c4ccc(-c5cc(C)c(B(c6c(C)cc(C)cc6C)c6c(C)cc([N+](C)(C)C)cc6C)c(C)c5)s4)s3)cc2C)c(C)c1
7.0	11.1 °C	–	Cc1cc(C)c(B(c2c(C)cc(C)cc2C)c2c(C)cc(-c3ccc(-c4ccc(-c5cc(C)c(B(c6c(C)cc([N+](C)(C)C)cc6C)c6c(C)cc([N+](C)(C)C)cc6C)c(C)c5)s4)s3)cc2C)c(C)c1
